Laboratory results: article PMC6747070, “β-Glucose-1,6-Bisphosphate Stabilizes Pathological Phophomannomutase2 Mutants In Vitro and Represents a Lead Compound to Develop Pharmacological Chaperones for the Most Common Disorder of Glycosylation, PMM2-CDG” (International Journal of Molecular Sciences, 2019)

Key:
PMM2 (wt-PMM2) [1] = biological target: T1, PMM2 (wt-PMM2) (Homo sapiens, UniProt O15305); test: thermal shift assay (Sypro Orange); assay type: binding; details: 0.5 mM ligand, without vanadate; Hepes 20 mM pH 7.5, Mg2+, NaCl, DTT
T1 construct: recombinant, vector Pet22b+, E. coli BL21(DE3), no tag mentioned; homodimer; DEAE-Sepharose and Superdex 75 purification
T1 sequence (O15305 2-246): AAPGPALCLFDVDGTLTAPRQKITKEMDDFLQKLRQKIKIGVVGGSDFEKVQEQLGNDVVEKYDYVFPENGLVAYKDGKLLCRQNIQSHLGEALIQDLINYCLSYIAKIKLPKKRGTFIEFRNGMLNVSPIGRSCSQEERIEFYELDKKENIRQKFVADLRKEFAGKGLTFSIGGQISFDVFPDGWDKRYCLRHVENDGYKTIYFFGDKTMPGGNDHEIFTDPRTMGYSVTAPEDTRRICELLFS

PMM2 (wt-PMM2) [2] = biological target: T1, PMM2 (wt-PMM2); test: […]-NMR phosphomannomutase assay; assay type: biochemical; details: inhibitor; βG16P 5 or 50 μM; 1 mM αM1P, activator αG16P 5 μM; Hepes pH 7.3, MgCl2 1 mM, 32 °C

Row | Compound | dTm (PMM2 (wt-PMM2) [1]) | inhibition (PMM2 (wt-PMM2) [2])
1 | O=P(O)(O)O[C@H]1O[C@H](CO)[C@@H](O)[C@H](O)[C@H]1O [αG1P] | αG1P is a stabilizer of PMM2 too | –
2 | O=P(O)(O)OC[C@H]1O[C@@H](OP(=O)(O)O)[C@H](O)[C@@H](O)[C@@H]1O [βG16P] | – | βG16P is not an activator and show that it inhibits PMM2
